Source: PubChem BioAssay AID1963984 (Molecular Pharmacology Branch, DTP, NCI, 2024)
“And” between values parts separate entries of the source, which are not always exact repeats. Identical values can stand only once.

Tested on: 233499-124-R-J3-PDC spheroids with HUVEC/MSC, viability
Assay: Anticancer human tumor 233499-124-R-J3-PDC patient-derived colon adenocarcinoma cell line growth inhibition [PI3K]
Conditions: for viability, T/C: stronger effect = lower value
Excerpt: Combinatorial screen of targeted agents with the PI3K inhibitors inavolisib, alpelisib, duvelisib, and copanlisib in multi-cell type tumor spheroids
A high-throughput screen of multi-cell type tumor spheroids was designed to identify active combinations of targeted small molecules and PI3K pathway inhibitors. Complex spheroids include a stromal component modeled by human endothelial cells (HUVEC) and fibroblasts modeled by human mesenchymal stem cells (MSCs). The concentration ranges selected for each drug and investigational agent were based upon clinically achievable concentrations if the clinical Cmax of the agent was known.
Compounds. The drugs and investigational agents: inavolisib (NSC800729), alpelisib (NSC765974), duvelisib (NSC772469), copanlisib (NSC816437), ipatasertib (NSC767898), afuresertib (NSC778305), talazoparib (NSC767125), sapanisertib (NSC764658), selumetinib (NSC741078), tovorafenib (DAY101, NSC766906), vemurafenib (NSC761431), ravoxertinib (NSC781343), sotorasib (NSC818433), MRTX1133 (NSC 836407), abemaciclib (NSC 768073), palbociclib (NSC758247), venetoclax (NSC 766270), SY5609 (NSC837396), enzalutamide (NSC755605), and darolutamide (NSC825331), were obtained from the National Cancer Institute (NCI) Developmental Therapeutics Program Chemical Repository. The FDA-approved anticancer drug set is available from the NCI Developmental Therapeutics Program. […] The stock solutions were prepared in dimethyl sulfoxide (DMSO, Sigma-Aldrich, St. Louis, MO, cat. D2650) at 800-fold the tested concentration and stored at -70 degrees C prior to their use. All drugs and investigational agents were tested over a range starting from a high concentration at or near the clinical Cmax and decreasing in half-log increments. If the clinical Cmax for an agent had not been determined, the highest concentration tested was 10 microM.
Cell Culture. All cells were maintained in an incubator at 37 degrees C and 5% CO2 with 95% humidity. The PDC lines were cultured according to standard operating procedures established by the NCI PDMR (https://pdmr.cancer.gov/sops/default.htm). All PDCs were thawed and cultured in Matrigel-coated flasks prepared with a working solution of 1X Ham's F-12 nutrient mix, without supplementation (Invitrogen, Waltham, MA, cat. 11765054), 100 U/mL penicillin-streptomycin (Invitrogen, cat. 15140122), and 2.5% Matrigel (Corning Inc., Corning, NY, cat. 354248) for the first three passages. The 354836-022-R-J1-PDC, 475296-252-R-J1-PDC, and 997726-040-R-J2-PDC lines were cultured in 6A media, which includes advanced DMEM/F-12 (Thermo Fisher Scientific, cat. 12634028), 10 mM HEPES (Thermo Fisher Scientific, cat. 15630080), 1X GlutaMAX supplement (Thermo Fisher Scientific, cat. 35050061), 0.1 mg/mL primocin (InvivoGen, San Diego, CA, cat. ant-pm-2), 10% defined fetal bovine serum, heat inactivated (HyClone Laboratories Inc., Logan, UT, cat. SH30070.03HI), 50% L-WRN conditioned media (ATCC, cat. CRL-3276), 1.25 mM N-Acetyl-L-cysteine (Sigma-Aldrich, cat. A9165), 10 mM nicotinamide (Sigma-Aldrich, cat. N0636), 1X B-27 supplement (Thermo Fisher Scientific, cat. 17504044), 1X N-2 supplement (Thermo Fisher Scientific, cat. 17502048), and 10 microM Y-27632 dihydrochloride (Tocris Bioscience, Bristol, United Kingdom, cat. 1254). The 624824-186-R-J2-PDC line was cultured in 6C/Colon 1B media, which includes all 6A media components plus 50 ng/mL human EGF recombinant protein (Thermo Fisher Scientific, cat. PHG0311). […]

[1] = compound alone, run of 05/09/2023
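Also: spheroids exposed to agents for seven days before readout.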
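For viability, T/C in this document: percent viability relative to DMSO vehicle control taken as 100%.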

Compound	viability, T/C (compound 0.0316 µM)	viability, T/C (compound 0.1 µM)	viability, T/C (compound 0.316 µM)	viability, T/C (compound 1 µM)	viability, T/C (compound 3.16 µM)	viability, T/C (compound 10 µM)	IC50 (curve of compound)	other results
C#Cc1c(F)ccc2cc(O)cc(-c3ncc4c(N5CC6CCC(C5)N6)nc(OCC56CCCN5CC(F)C6)nc4c3F)c12 (configuration not stated)	96% [middle of 4 runs]	102% [middle of 4 runs]	95.6% [middle of 4 runs]	99.3% [middle of 4 runs]	87.5% [middle of 4 runs]	84.1% [middle of 4 runs]	> 10 µM	–
C=CC(=O)N1CCN(c2nc(=O)n(-c3c(C)ccnc3C(C)C)c3nc(-c4c(O)cccc4F)c(F)cc23)C(C)C1 (configuration not stated)	91.7% [middle of 4 runs]	99.3% [middle of 4 runs]	–	113% [middle of 4 runs]	99.9% [middle of 4 runs]	–	> 10 µM	–
CC(=O)c1c(C)c2cnc(Nc3ccc(N4CCNCC4)cn3)nc2n(C2CCCC2)c1=O	–	91.2% [middle of 4 runs]	–	–	–	–	> 0.1 µM	viability, T/C (compound 0.000316 µM): 98.4% [middle of 4 runs]; viability, T/C (compound 0.001 µM): 98.5% [middle of 4 runs]; viability, T/C (compound 0.00316 µM): 85.1% [middle of 4 runs]; viability, T/C (compound 0.01 µM): 88.2% [middle of 4 runs]
CC(C)NCC(C(=O)N1CCN(c2ncnc3c2C(C)CC3O)CC1)c1ccc(Cl)cc1 (configuration not stated)	97.7% [middle of 4 runs]	–	94% [middle of 4 runs]	102% [middle of 4 runs]	94.5% [middle of 4 runs]	–	> 10 µM	–
CC(C)n1nc(-c2ccc3oc(N)nc3c2)c2c(N)ncnc21	82.9% [middle of 4 runs]	58.7% [middle of 4 runs]	–	–	–	–	> 0.1 µM	viability, T/C (compound 0.001 µM): 94.8% [middle of 4 runs]; viability, T/C (compound 0.00316 µM): 89.4% [middle of 4 runs]; viability, T/C (compound 0.01 µM): 85.9% [middle of 4 runs]
CC(Cn1ccc(-c2ccc(C#N)c(Cl)c2)n1)NC(=O)c1cc(C(C)O)[nH]n1 (configuration not stated)	–	–	97.2% [middle of 4 runs]	98.2% [middle of 4 runs]	92.5% [middle of 4 runs]	–	> 10 µM	–
CC(Nc1ccc2c(c1)OCCn1cc(N3C(=O)OCC3C(F)F)nc1-2)C(N)=O (configuration not stated)	–	80.2% [middle of 8 runs]	–	71.6% [middle of 8 runs]	–	–	–	IC50 (compound alone, run of 05/08/2023): > 1 µM
CC(Nc1ncnc2nc[nH]c12)c1cc2cccc(Cl)c2c(=O)n1-c1ccccc1 (configuration not stated)	93.9% [middle of 8 runs]	97.2% [middle of 8 runs]	95.8% [middle of 8 runs]	103% [middle of 8 runs]	100% [middle of 8 runs]	89.7% [middle of 8 runs]	–	IC50 [1]: > 10 µM
CC1(C)CCC(CN2CCN(c3ccc(C(=O)NS(=O)(=O)c4ccc(NCC5CCOCC5)c([N+](=O)[O-])c4)c(Oc4cnc5[nH]ccc5c4)c3)CC2)=C(c2ccc(Cl)cc2)C1	96.5% [middle of 4 runs]	104% [middle of 4 runs]	–	–	100% [middle of 4 runs]	–	–	–
CC1(C)CCC(Nc2ncc(C(F)(F)F)c(-c3c[nH]c4c(P(C)(C)=O)c(C#N)ccc34)n2)CN1 (configuration not stated)	66.7% [middle of 4 runs]	–	46.9% [middle of 4 runs]	26.5% [middle of 4 runs]	29.1% [middle of 4 runs]	5.67% [middle of 4 runs]	–	–
CCCS(=O)(=O)Nc1ccc(F)c(C(=O)c2c[nH]c3ncc(-c4ccc(Cl)cc4)cc23)c1F	–	97.4% [middle of 4 runs]	97.2% [middle of 4 runs]	100% [middle of 4 runs]	–	2.53% [middle of 4 runs]	5.22 µM [middle of 4 runs]	–
CCN1CCN(Cc2ccc(Nc3ncc(F)c(-c4cc(F)c5nc(C)n(C(C)C)c5c4)n3)nc2)CC1	85.6% [middle of 4 runs]	93.8% [middle of 4 runs]	58.9% [middle of 4 runs]	38.2% [middle of 4 runs]	–	–	–	viability, T/C (compound 0.01 µM): 88.5% [middle of 4 runs]
CNC(=O)c1ccc(N2C(=S)N(c3ccc(C#N)c(C(F)(F)F)c3)C(=O)C2(C)C)cc1F	93% [middle of 4 runs]	94.5% [middle of 4 runs]	107% [middle of 4 runs]	93.1% [middle of 4 runs]	92.1% [middle of 4 runs]	–	> 10 µM	–
COc1c(OCCCN2CCOCC2)ccc2c3n(c(=NC(=O)c4cnc(N)nc4)nc12)CCN3	93.6% [middle of 8 runs]	–	31.3% [middle of 8 runs]	11.8% [middle of 8 runs]	–	–	–	viability, T/C (compound 0.01 µM): 84.7% [middle of 8 runs]; IC50 [1]: 185 nM [middle of 8 runs]
C[C@@H](NC(=O)c1ncnc(N)c1Cl)c1ncc(C(=O)Nc2cc(C(F)(F)F)c(Cl)cn2)s1	–	–	–	–	110% [middle of 4 runs]	110% [middle of 4 runs]	> 10 µM	–
Cc1nc(NC(=O)N2CCCC2C(N)=O)sc1-c1ccnc(C(C)(C)C(F)(F)F)c1 (configuration not stated)	79.1% [middle of 7 runs]	88.6% [middle of 8 runs]	–	–	–	–	–	–
Cn1cnc2c(F)c(Nc3ccc(Br)cc3Cl)c(C(=O)NOCCO)cc21	–	–	–	–	–	–	–	viability, T/C (compound 0.00949 µM): 80.2% [middle of 4 runs]; viability, T/C (compound 0.0949 µM): 64.8% [middle of 4 runs]; viability, T/C (compound 0.3 µM): 50.3% [middle of 4 runs]; viability, T/C (compound 0.949 µM): 49.8% [middle of 4 runs]; viability, T/C (compound 3 µM): 30.5% [middle of 4 runs]
Cn1ncc(Cl)c1-c1cc(C(=O)NC(CN)Cc2cccc(F)c2)sc1Cl (configuration not stated)	85.8% [middle of 4 runs]	102% (2×) and 85.4% and 93.9%	86.2% [middle of 4 runs]	89.6% [middle of 4 runs]	63.6% [middle of 4 runs]	32.4% [middle of 4 runs]	4.62 µM [middle of 4 runs]	–
Cn1nccc1Nc1nccc(-c2ccn(C(CO)c3ccc(Cl)c(F)c3)c(=O)c2)n1 (configuration not stated)	–	100% [middle of 4 runs]	–	–	–	71.2% [middle of 4 runs]	> 10 µM	–
Cn1ncnc1[C@H]1c2n[nH]c(=O)c3cc(F)cc(c23)N[C@@H]1c1ccc(F)cc1	103% [middle of 4 runs]	89% [middle of 4 runs]	–	–	–	–	> 0.1 µM	viability, T/C (compound 0.000316 µM): 100% [middle of 4 runs]; viability, T/C (compound 0.001 µM): 99.6% [middle of 4 runs]
